{"source": "paper PMC9609178", "about": "“Tumor-Specific Monomethyl Auristatin E (MMAE) Prodrug Nanoparticles for Safe and Effective Chemotherapy” (Pharmaceutics, 2022)", "key": {"[1]": {"tested_on": "H9C2 cells", "experiment": "Cytotoxicity, CCK-8 assay, H9C2 cells", "format": "cell-based, rat", "conditions": "24 h incubation; CCK-8, 450 nm; read-out: IC50, cell viability, H9C2 cells", "protocol": "(§1) First, […] 4T1 or H9C2 cells were seeded in the 96-well cell culture plates. […] Finally, the cell viability of each cell was measured using a microplate reader with 450 nm of wavelength (VERSAmaxTM; Molecular Devices Corp., San Jose, CA, USA)."}, "[2]": {"tested_on": "4T1 cells", "experiment": "Cytotoxicity, CCK-8 assay, 4T1 cells", "format": "cell-based, murine", "conditions": "24 h incubation; CCK-8, 450 nm; read-out: IC50, cell viability, 4T1 cells", "protocol": "as §1"}, "[3]": {"tested_on": "4T1 cells", "experiment": "Tubulin formation in 4T1 cells (anti-tubulin antibody staining)", "format": "cell-based, murine", "conditions": "after 24 h of treatment; Cy5.5 anti-tubulin antibody", "protocol": "Then, cells were fixed with 4% paraformaldehyde fixative for 25 min, and stained with DAPI solution (Invitrogen, Carlsbad, CA, USA) for 15 min in the dark. Finally, the 4T1 cells were observed using a confocal laser scanning microscope (CLSM) equipped with 405 diode (405 nm) and HeNe-Red (633 nm) lasers (Leica, Wetzlar, Germany)."}, "[4]": {"conditions": "cited from earlier work", "description": "Monomethyl auristatin E (MMAE), a synthetic analog of the natural product dolastatin 10, is a potent antimitotic agent that inhibits tubulin polymerization."}, "[5]": {"experiment": "Toxicity study in 4T1 tumor-bearing mice (histology, hematology, body weight, survival)", "format": "in vivo", "protocol": "(§2) The antitumor efficacy was evaluated in the breast tumor models. The breast tumor models were prepared via subcutaneous injection of 1 × 10^6 4T1 cells. […] The mice were treated once every three days, and tumor volumes were calculated as the smallest diameter^2 × largest diameter × 0.53. The mice with a tumor volume of 2000 mm^3 or larger were counted as dead. […] The major organs were collected from mice on day 5 after treatments, and structural abnormality in the organ tissues was assessed by staining with H&E."}, "[6]": {"tested_on": "4T1 tumor", "experiment": "Antitumor efficacy in 4T1 breast tumor models", "format": "in vivo, mice", "protocol": "as §2"}}, "note": "pIC50: −log10 of the molar value. Square brackets hold non-standard residues; d marks the D form. Peptide text beside a SMILES is read from it. * marks the point of attachment. Dolaproine = CO[C@@H]([C@@H]1CCCN1)[C@@H](C)C(=O)O; Dil = CC[C@H](C)[C@H](NC)[C@@H](CC(=O)O)OC; X1 = C[C@@H](N*)[C@@H](O)c1ccccc1; NMeV = CN[C@H](C(=O)O)C(C)C"}
{"smiles": "CC[C@H](C)[C@@H]([C@@H](CC(=O)N1CCC[C@H]1[C@H](OC)[C@@H](C)C(=O)N[C@H](C)[C@@H](O)c1ccccc1)OC)N(C)C(=O)[C@@H](NC(=O)[C@@H](NC)C(C)C)C(C)C", "note": "[MMAE, Monomethyl auristatin E] (H-[NMeV]V[Dil][Dolaproine]-X1)", "values": [{"measurement": "pIC50", "setting": "[1]", "result": 8.93}, {"measurement": "pIC50", "setting": "[2]", "result": 9.04}, {"measurement": "Tubulin formation in 4T1 cells compared to naive cells", "setting": "[3]", "result": "significantly inhibited"}, {"measurement": "Antitumor efficacy, times more potent than doxorubicin", "setting": "[4]", "result": "100–1000 times"}, {"measurement": "Body weight", "setting": "[5]; 0.2 mg/kg MMAE equivalent once every three days", "result": "significant body weight loss"}, {"measurement": "Mice survival", "setting": "[5]; 0.2 mg/kg MMAE equivalent once every three days, 15 days", "result": "all the mice were dead within five days"}, {"measurement": "Hematological parameters (ALB, AST, ALT)", "setting": "[5]; 0.2 mg/kg MMAE equivalent, after five days of treatment", "result": "significant changes"}, {"measurement": "Structural abnormalities in normal organs (liver, lung, spleen, kidney and heart), H&E", "setting": "[5]; 0.2 mg/kg once every three days, after five days of treatment", "result": "severe systemic toxicity"}, {"measurement": "Tumor growth during monitoring for 15 days", "setting": "[6]; 0.1 mg/kg MMAE once every three days, 15 days", "result": "rapid tumor growth compared to FRRG-MMAE-treated mice"}, {"measurement": "Tumor volume on day 5 after treatment", "setting": "[6]; 0.2 mg/kg based on MMAE contents, once every three days, day 5", "result": "154.73 ± 31.63", "unit": "mm^3"}]}
